In ChEMBL document CHEMBL6153043, “Anthelmintic Potential of Conjugated Long-Chain Fatty Acids Isolated from the Bioluminescent Mushroom Neonothopanus gardneri” (J Nat Prod, 2025):

Columns and labels:
[1] = Selectivity index, ratio of CC50 for African green monkey Vero cells to EC50 for anti-schistosomal activity against male Schistosoma mansoni; assay type: toxicity, cell-based; conditions: read-out: Ratio CC50/EC50
[2] = Selectivity index, ratio of CC50 for African green monkey Vero cells to EC50 for anti-schistosomal activity against female Schistosoma mansoni; assay type: toxicity, cell-based; conditions: read-out: Ratio CC50/EC50
[3] = Toxicity against L4 stage of Caenorhabditis elegans assessed as effect on viability by measuring mobility at 25 to 200 uM incubated for 24 hrs by inverted microscopic analysis; conditions: dose 25-200 µM

| Compound | selectivity ratio [1] | selectivity ratio [2] | Activity [3] |
| --- | --- | --- | --- |
| CCCCCCCC/C=C\[C@@H](O)[C@H](O)CCCCCC(=O)O | > 24.1 | > 6.13 | Non-toxic |
| O=C(C1CCCCC1)N1CC(=O)N2CCc3ccccc3C2C1 (stereo not given) [PRAZIQUANTEL] | > 250 | > 333 | – |
